Experimental data from patent US20230061319A1, “METHODS OF TREATING TUMORS” (CoImmune, Inc., priority 2020, published 2023).

Assays:
CMV pp65 specific CTLs [1] = experiment: Induction of CMV pp65 specific recall CTLs by PME-CD40L DCs in the presence of mTOR inhibitors; assay type: cell-based, human
Procedure: 300 x 10^6 peripheral blood mononuclear cells (PBMCs) were cultured in 30 mL AIM-V media (Thermo Fisher Scientific) in T150 flasks (Corning) for 2 hours to provide for the adherence of monocytes. Non-adherent cells were removed by washing the monolayers twice with cold phosphate buffered saline (PBS) (Cambrex), and the remaining monocytes were cultured in X-VIVO 15 medium (Cambrex) for 5 days, supplemented with 1000 U/mL each of granulocyte macrophage-colony stimulating factor (GM-CSF) (Bayer AG, Leukine® liquid) and IL-4 (R&D Systems). To achieve DC maturation, immature DCs were first cultured on day 5 with 10 ng/mL tumor necrosis factor alpha (TNF-α) (R&D Systems), 1000 µ/mL interferon gamma (IFN-y) (Actimmune), and 1 µg/mL prostaglandin E2 (PGE2) (Sigma). On day 6, phenotypically mature DCs were co-electroporated with RNA encoding CD40L (Argos Lot No. 101606 JSC) at a concentration of 3 ug per million DCs plus either human cytomegalovirus (CMV) pp65 or MART-1 encoding RNAs at 2 µg per million DCs (CMVpp65 RNA-Argos Lot No 071107XF, MART-1-APL RNA-Argos Lot No. 011909HC). Generation of MART-1 RNA and CD40L RNA is described in e.g., DeBenedette et al., J. Immunol. 181(8):5296-5305 (2008).
Electroporated DCs were cultured for an additional 4 hours in X-VIVO 15 media supplemented with 800 µ/mL GM-CSF and 500 µ/mL IL-4 at 1 x 10^6 DCs/mL in low adherence 6-well plates (Costar). After 4 hr, the DCs were harvested by washing with cold PBS and prepared as a frozen formulation at 10 x 10^6 DCs/mL in 20% DMSO and 80% FBS, representing antigen electroporated Post Maturation Electroporated (PME)-CD40L DC preparations.
(§1) PME-CD40L DCs derived from HLA-A2-positive donors and transfected with antigen-encoding mRNAs were co-cultured with purified CD8^+ T cells. All co-cultures were performed in R-10 media. CD8^+ T cells were purified using the CD8+ T Cell Negative Selection Kit II (Miltenyi Biotec) from non-adherent cells harvested from the monocyte adherence step. The CD8^+ cells were mixed with DCs at a 10:1 ratio and incubated in the presence of 0.2 µg/mL IL-2 and 10 ng/mL IL-7 (R&D Systems). DC/T cell co-cultures were re-stimulated on day 7 and supplemented with 20 units/mL IL-2 plus 10 ng/mL IL-7. Induction of primary immune responses to MART-1 and memory/recall responses to CMV pp65 were measured on day 10.
(§2) To identify antigen-specific T cell responses and the phenotype of the antigen specific cells, T cells were harvested on day 10 post-stimulation and incubated with peptide-pulsed T2 target cells at a ratio of 10:1 for 4 hour with Brefeldin A, Monensin (BD Biosciences) and CD107a PE-Cy5. […] After 4 hours of co-culture, responder T cells were stained for 10 minutes with the requisite peptide/pentamer reagent, then washed once and re-stained with CD8-Eflour605, CD45RA-FITC, and CD28-APC. Cells were then washed in PBS and stained with Aquadye (BD Biosciences) for analysis of viability. Labeled cells were then fixed and permeabilized in Fixation/Permeabilization solution (eBiosciences). Cells where then stained with IFN-γ-PECy7, TNFa-AF700 and IL-2-PerCPcy5.5 in permeabilization buffer and resuspended in FACs buffer prior to acquisition.
CD8^+ cytotoxic T lymphocyte (CTL) responses were used to measure the pp65 CMV recall response induced by PME-CD40L DCs in the presence of mTOR inhibitors everolimus and temsirolimus. PME-CD40L DCs encoding CMV pp65 were used to stimulate recall CTL responses in the presence of the mTOR inhibitors under evaluation for compatibility with the CMN-001 product. The expansion of recall CTLs specific for CMV pp65 was determined on day 3 after a second weekly stimulation with PME-CD40L DCs.

CMV pp65 specific CTLs [2] = experiment: CMV pp65 specific recall CTL effector function (IFN-γ, TNF-α, IL-2 secretion, CD107a expression); assay type: cell-based, human
Procedure: as §1, §2
To assess the impact mTOR inhibition would have on CTL effector function in vitro, CMV pp65 specific CTLs were assayed for the ability to secret the cytokines IFN-y, TNF-α and IL-2, and express the degranulation marker CD107a, which serves as a surrogate marker to measure lytic activity. Data presented in FIG. 2A and FIG. 2B measures the absolute numbers of CMV […] specific CTLs that secrete IFN-y, TNF-α or IL-2, or express CD107a in response to CMV pp65 peptide pulsed target cells. The absolute numbers of CMV^+ CTLs shown have been corrected for background non-specific responses to display only the antigen specific response for each parameter.

mRCC patients = experiment: Retrospective Kaplan-Meier analysis of overall survival in the Phase 3 ADAPT trial; assay type: in vivo, human
[3] = than rapamycin (sirolimus); cited from earlier work
[4] = than rapamycin (sirolimus); cited from earlier work; remark: listed apart in the source
B cells = experiment: TGF-β secretion by stimulated PBMCs from mRCC patients (ELISA); details: everolimus 10 ng/mL, 6 days, supernatant
Procedure: Frozen patient PBMC were thawed, counted, and washed in PBS. The cells were resuspended in X-VIVO 15 media (with gentamicin and phenol red; Lonza) at 2x10^6 cells/mL and incubated overnight in a 5% CO2 incubator at 37° C. The cells were counted and set up in culture at 1x10^6 cells/mL in X-VIVO 15 media. […] Everolimus (LC Laboratories) was added at 10 ng/mL to unstimulated or stimulated cultures. The cultures were incubated overnight in a 5% CO2 incubator at 37° C. for six days.
The concentration of total TGF-β1 in plasma and supernatant samples was quantified using the LEGEND MAX Total TGF-β1 ELISA Kit (Biolegend). Samples were prepared by acid treatment to activate latent TGF-β1 and then diluted 1:20 or 1:100 in assay buffer. Samples were incubated on a plate pre-coated with anti-TGF-β1 antibody for 2 hours. Anti-TGF-β1 was incubated for 1 hour, and the plate was washed and incubated with Avidin-HRP for 30 minutes. The plate was developed with TMB substrate solution and Stop solution, and was read at 450 nm and 570 nm using an ELx800 plate reader.
Thus, the impact of everolimus on B cell TGF-β production was investigated. PBMCs from mRCC patients were stimulated (“stim”) or left unstimulated (“control”) with or without everolimus addition as described in Example 1 to induce TGF-β secretion. TGF-β concentrations in the supernatant were measured after 6 days by ELISA.

[5] = 10 ng/ml, compared to DC/CTL co-cultures without mTOR inhibitor, day 3 after second weekly stimulation

CO[C@H]1C[C@@H]2CC[C@@H](C)[C@@](O)(O2)C(=O)C(=O)N2CCCC[C@H]2C(=O)O[C@H]([C@H](C)C[C@@H]2CC[C@@H](OCCO)[C@H](OC)C2)CC(=O)[C@H](C)/C=C(\C)[C@@H](O)[C@@H](OC)C(=O)[C@H](C)C[C@H](C)/C=C/C=C/C=C/1C [everolimus]
numbers of CMV pp65 specific CTLs (CMV pp65 specific CTLs [1]; [5]): increase
percentage of CMV pp65 specific CTLs (CMV pp65 specific CTLs [1]; [5]): increase
increase in absolute numbers of CMV+ CTL (CMV pp65 specific CTLs [1]; 1 µg/ml): evident
increase in percentage of CMV+ CTL (CMV pp65 specific CTLs [1]; 1 µg/ml): evident
numbers of CMV+ CTL secreting a cytokine or expressing CD107a (CMV pp65 specific CTLs [2]; 10 ng/ml, compared to untreated CTLs): increased
increase in effector function of CMV+ CTL (CMV pp65 specific CTLs [2]; 1 µg/ml): maintained
OS (mRCC patients; SOC arm, everolimus during follow up): 13.4 months
OS (mRCC patients; SOC arm, everolimus during treatment): 17.7 months
OS (mRCC patients; combination arm (DC therapy), everolimus during follow up phase): 25.7 months
OS (mRCC patients; combination arm (DC therapy), everolimus during treatment phase): 19.3 months
median OS (mRCC patients; everolimus during the follow up phase (n=42), combination n=22, everolimus after SOC therapy n=20): 13.4 months
median OS (mRCC patients; everolimus during the treatment phase (n=49), combination n=38, everolimus alone n=11): 17.8 months
median overall survival (OS) (mRCC patients; everolimus treated population (n=91), everolimus as 2nd line, combination n=60, everolimus alone n=31): 13.6 months
solubility in organic solvents [3]: enhanced
stability [3]: greater
pharmokinetics [4]: more favorable
concentration of TGF-β secreted by stimulated B cells (B cells): decrease
